The record followed here is patent US9926304B2, “1-(arylmethyl)quinazoline-2,4(1H,3H)-diones as PARP inhibitors and the use thereof” (Impact Therapeutics, Inc., priority 2011, dated 2018).

Assay [1] has as its system Human breast cancer cell line T47D. Nature of the assay: Cell based caspase-3 activity assay: potentiation of MMS induced apoptosis. As to conditions: T47D cells, 11.1 μg/ml MMS, 24 hours, intracellular caspase-3 activity, read-out: EC50 (nM), potentiation of the apoptosis inducing activity of MMS. The method in brief: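 T47D cells were exposed for 24 h to compound plus a minimally apoptotic MMS dose (medium containing 11.1 μg/ml MMS). Lysates were incubated 3 h at 37 °C with (Ac-DEVD)2-R110 caspase-3 substrate (20 μM in added buffer) and read at ex 496/em 520 nm. EC50 came from a sigmoidal fit of RFU versus log concentration.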

Assay [2] concerns SW620 human colorectal cancer cells. Nature of the assay: MTT based cell viability assay: potentiation of the growth inhibiting activity of MMS.
Description: Briefly, SW620 human colorectal cancer cells were used to measure the cell growth inhibiting activity of DNA alkylating anticancer drug MMS. […] SW620 cells were grown and maintained in RPMI1640 (Gibco) medium supplemented with 10% FBS (Hyclone). In the first day of experiment, 4000 cells were seeded to each well of a 96-well cell culture plate and incubated at 37° C. and 5% CO2 in a cell culture incubator overnight. In the next day, the cell culture medium was removed. […] The serial dilutions of the reference compounds and the compounds to be tested were made with a 1:3 and 1:10 fashion in DMSO. The 10-fold concentrated solutions of these compounds were made by mixing 10 μl of the serial dilutions in DMSO with 90 μl fresh medium. The final concentration of DMSO in the medium was 1%. The cells were incubated at 37° C. in 5% CO2 cell culture incubator for additional 5 days (120 hours). Afterwards, the 96-well cell culture plate was taken out and 20 μl of MTT solution was added to each well and incubated at 37° C. for 4 h. The medium was removed and 100 μl DMSO was added to each well. The 96-well cell culture plates were shaked adequately for 10 min and read in a Varioskan Flash plate reader (Thermo Fisher Scientific) at 520 and 690 nm. The data were analyzed by Prism 5 software (GraphPad). The obtained 520 nm absorbance readings subtracting corresponding 690 nm reading were analyzed and plotted against the Log scale of the compound concentrations.
The mark [3] stands for this setting: Homo sapiens, SW-620, 120 h, read-out: IC50 (nM), potentiation of the growth inhibiting activity of MMS, SW620 cells, 1.7 μg/ml MMS, 5 days (120 hours), MTT.
[4] abbreviates: read-out: IC50 (nM), potentiation of the growth inhibiting activity of MMS, SW620 cells, 1.7 μg/ml MMS, 5 days (120 hours), MTT.

Structures are written as SMILES. Where two headings read alike, the source gives them in different places.

As a reminder, the EC50 is the concentration needed to bring the measured effect to its halfway point. `O=c1[nH]c(=O)n(Cc2cccc(CN3CCN(c4ccccn4)CC3)c2)c2ccccc12` [Example 195, 1-(3-((4-(Pyridin-2-yl)piperazin-1-yl)methyl)benzyl)quinazoline-2,4(1H,3H)-dione]: the EC50 in assay [1] (Homo sapiens, T47D, 24 h) turned out to be 471 nM. In assay [2] (setting [3]), the IC50 came out at 1440 nM.
In the same order, the values of `O=C(Cc1ccc2ccccc2c1)Nc1cccc(Cn2c(=O)[nH]c(=O)c3ccccc32)c1` [Example 196, 1-(3-(Naphthalen-2-yl)acetamidobenzyl)quinazoline-2,4(1H,3H)-dione] are above 10000 nM and 985 nM.
Taken in the same sequence, the figures for `COc1ccc(CC(=O)Nc2cccc(Cn3c(=O)[nH]c(=O)c4ccccc43)c2)cc1OC` [Example 197, 1-(3-(3,4-Dimethoxyphenyl)acetamidobenzyl)quinazoline-2,4(1H,3H)-dione] were above 10000 nM and above 10000 nM.
Taken in the same sequence, the figures for `O=C(c1cccc(Cn2c(=O)[nH]c(=O)c3ccccc32)c1)c1ccc2nncn2c1` [Example 198, 1-(3-([1,2,4]Triazolo[4,3-a]pyridine-6-carbonyl)benzyl)quinazoline-2,4(1H,3H)-dione] were above 10000 nM and above 10000 nM.
On to `COc1ccc(CNC(=O)c2cc(Cn3c(=O)[nH]c(=O)c4c(F)cccc43)ccc2F)cc1` [Example 200, 5-Fluoro-1-(4-fluoro-3-(4-methoxybenzylcarbamoyl)benzyl)quinazoline-2,4(1H,3H)-dione], for which, in assay [1] (Homo sapiens, T47D, 24 h), the EC50 was above 10000 nM. For the same molecule, the IC50 in assay [2] (setting [3]) is above 10000 nM.
`O=C(NCc1cccc(Cl)c1)c1cc(Cn2c(=O)[nH]c(=O)c3c(F)cccc32)ccc1F` [Example 201, 1-(3-(3-Chlorobenzylcarbamoyl)-4-fluorobenzyl)-5-fluoroquinazoline-2,4(1H,3H)-dione]: the EC50 in assay [1] (Homo sapiens, T47D, 24 h) is above 10000 nM. The IC50 in assay [2] (setting [3]) is above 10000 nM.
Regarding `O=C(NCc1ccccc1)c1cc(Cn2c(=O)[nH]c(=O)c3c(F)cccc32)ccc1F` [Example 202, 1-(3-(Benzylcarbamoyl)-4-fluorobenzyl)-5-fluoroquinazoline-2,4(1H,3H)-dione], in assay [1] (Homo sapiens, T47D, 24 h), the EC50 is above 10000 nM. Moreover, the IC50 in assay [2] (setting [3]) was above 10000 nM.
`COc1cccc2c1c(=O)[nH]c(=O)n2Cc1cccc(C(=O)N2CCN(c3ncccn3)CC2)c1` [Example 203, 5-Methoxy-1-(3-(4-(pyrimidin-2-yl)piperazine-1-carbonyl)benzyl)quinazoline-2,4(1H,3H)-dione]: in assay [1] (Homo sapiens, T47D, 24 h), the EC50 was above 10000 nM. Also, the IC50 in assay [2] (setting [3]) was above 10000 nM.
`COc1ccc2c(c1)c(=O)[nH]c(=O)n2Cc1cccc(C(=O)N2CCN(c3ncccn3)CC2)c1` [Example 204, 6-Methoxy-1-(3-(4-(pyrimidin-2-yl)piperazine-1-carbonyl)benzyl)quinazoline-2,4(1H,3H)-dione]: the concentration for a half-maximal effect (EC50) in assay [1] (Homo sapiens, T47D, 24 h) is above 10000 nM. Moreover, the IC50 in assay [2] (setting [3]) is above 10000 nM.
As to `O=C(c1cccc(Cn2c(=O)[nH]c(=O)c3ccc(C(F)(F)F)cc32)c1)N1CCN(c2ncccn2)CC1` [Example 206, 1-(3-(4-(Pyrimidin-2-yl)piperazine-1-carbonyl)benzyl)-7-(trifluoromethyl)quinazoline-2,4(1H,3H)-dione], the EC50 in assay [1] (Homo sapiens, T47D, 24 h) is above 10000 nM. Also, in assay [2] (setting [3]), the IC50 was above 10000 nM.
Regarding `O=C(c1cccc(Cn2c(=O)[nH]c(=O)c3cc4c(cc32)OCCO4)c1)N1CCN(c2ncccn2)CC1` [Example 207, 6,7-Ethylenedioxo-1-(3-(4-(pyrimidin-2-yl)piperazine-1-carbonyl)benzyl)quinazoline-2,4(1H,3H)-dione], the EC50 in assay [1] is above 10000 nM. The IC50 in assay [2] (setting [4]) is above 10000 nM.
Take `COc1ccc(C(=O)N2CCN(c3ncccn3)CC2)cc1Cn1c(=O)[nH]c(=O)c2c(F)cccc21` [Example 208, 5-Fluoro-1-(6-methoxy-3-(4-(pyrimidin-2-yl)piperazine-1-carbonyl)benzyl)quinazoline-2,4(1H,3H)-dione]: the EC50 in assay [1] (Homo sapiens, T47D, 24 h) came out at 24 nM. In assay [2] (setting [3]), the IC50 amounted to 37 nM.
In the same order, the values of `COc1ccc2c(=O)[nH]c(=O)n(Cc3cccc(C(=O)N4CCN(c5ncccn5)CC4)c3)c2c1` [Example 209, 7-Methoxy-1-(3-(4-(pyrimidin-2-yl)piperazine-1-carbonyl)benzyl)quinazoline-2,4(1H,3H)-dione] are 294 nM and 103 nM.
In the same order, the values of `O=C(c1cc(Cn2c(=O)[nH]c(=O)c3c(F)cccc32)ccc1[N+](=O)[O-])N1CCN(c2ncccn2)CC1` [Example 211, 5-Fluoro-1-(4-nitro-3-(4-(pyrimidin-2-yl)piperazine-1-carbonyl)benzyl)quinazoline-2,4(1H,3H)-dione] are 166 nM and 145 nM.
In the same order, the values of `O=C(c1cc(Cn2c(=O)[nH]c(=O)c3c(F)cccc32)ccc1F)N1CCN(c2ccccc2)CC1` [Example 213, 5-Fluoro-1-(4-fluoro-3-(4-phenylpiperazine-1-carbonyl)benzyl)quinazoline-2,4(1H,3H)-dione] are 590 nM and 58 nM.
For `O=C(c1cc(Cn2c(=O)[nH]c(=O)c3c(F)cccc32)ccc1F)N1CCC(c2ccccc2)CC1` [Example 214, 5-Fluoro-1-(4-fluoro-3-(4-phenylpiperidine-1-carbonyl)benzyl)quinazoline-2,4(1H,3H)-dione], the EC50 in assay [1] (Homo sapiens, T47D, 24 h) amounted to 654 nM. The IC50 in assay [2] (setting [3]) amounted to 517 nM.
Taken in the same sequence, the figures for `O=C(c1cc(Cn2c(=O)[nH]c(=O)c3c(F)cccc32)ccc1Br)N1CCN(c2ncccn2)CC1` [Example 215, 1-(4-Bromo-3-(4-(pyrimidin-2-yl)piperazine-1-carbonyl)benzyl)-5-fluoroquinazoline-2,4(1H,3H)-dione] were 743 nM and 1390 nM.
As for `O=C(c1cccc(Cn2c(=O)[nH]c(=O)c3cc4c(cc32)OCO4)c1)N1CCN(c2ncccn2)CC1` [Example 216, 6,7-Methylenedioxo-1-(3-(4-(pyrimidin-2-yl)piperazine-1-carbonyl)benzyl)quinazoline-2,4(1H,3H)-dione], the EC50 in assay [1] is above 10000 nM. Also, in assay [2] (setting [4]), the IC50 is above 10000 nM.
Consider `O=C(c1cccc(Cn2c(=O)[nH]c(=O)c3cccc(F)c32)c1)N1CCN(c2ncccn2)CC1` [Example 218, 8-Fluoro-1-(3-(4-(pyrimidin-2-yl)piperazine-1-carbonyl)benzyl)quinazoline-2,4(1H,3H)-dione], for which, in assay [1] (Homo sapiens, T47D, 24 h), the EC50 was found to be 37 nM. Also, the IC50 in assay [2] (setting [3]) worked out at 103 nM.
In the same order, the values of `Nc1ccc2c(c1)c(=O)[nH]c(=O)n2Cc1cccc(C(=O)N2CCN(c3ncccn3)CC2)c1` [Example 219, 6-Amino-1-(3-(4-(pyrimidin-2-yl)piperazine-1-carbonyl)benzyl)quinazoline-2,4(1H,3H)-dione] are 445 nM and 481 nM.
In the same order, the values of `O=C(c1ccccc1Cn1c(=O)[nH]c(=O)c2ccccc21)N1CCN(c2ncccn2)CC1` [Example 220, 1-(2-(4-(Pyrimidin-2-yl)piperazine-1-carbonyl)benzyl)quinazoline-2,4(1H,3H)-dione] are above 10000 nM and above 10000 nM.
Turning to `O=C(c1cccc(-n2c(=O)[nH]c(=O)c3ccccc32)c1)N1CCN(c2ncccn2)CC1` [Example 221, 1-(3-(4-(Pyrimidin-2-yl)piperazine-1-carbonyl)phenyl)quinazoline-2,4(1H,3H)-dione], the EC50 in assay [1] (Homo sapiens, T47D, 24 h) is above 10000 nM. In assay [2] (setting [3]), the IC50 was above 10000 nM.
In the case of `O=C(c1cccc(Cn2c(=O)[nH]c3c(Cl)cccc3c2=O)c1)N1CCN(c2ncccn2)CC1` [Example 223, 8-Chloro-3-(3-(4-(pyrimidin-2-yl)piperazine-1-carbonyl)benzyl)quinazoline-2,4(1H,3H)-dione], the EC50 in assay [1] (Homo sapiens, T47D, 24 h) is above 10000 nM. Further, in assay [2] (setting [3]), the IC50 is above 10000 nM.
For `O=C(c1cccc(Cn2c(=O)[nH]c(=O)c3cccc(Cl)c32)c1)N1CCN(c2ncccn2)CC1` [Example 224, 8-Chloro-1-(3-(4-(pyrimidin-2-yl)piperazine-1-carbonyl)benzyl)quinazoline-2,4(1H,3H)-dione], the EC50 in assay [1] (Homo sapiens, T47D, 24 h) came to 274 nM. For the same molecule, the IC50 in assay [2] (setting [3]) amounted to 1110 nM.
In the case of `Cc1cccc2c(=O)n(Cc3cccc(C(=O)N4CCN(c5ncccn5)CC4)c3)c(=O)[nH]c12` [Example 225, 8-Methyl-3-(3-(4-(pyrimidin-2-yl)piperazine-1-carbonyl)benzyl)quinazoline-2,4(1H,3H)-dione], the 50% effective concentration (EC50) in assay [1] (Homo sapiens, T47D, 24 h) was above 10000 nM. The IC50 in assay [2] (setting [3]) is above 10000 nM.
For `Cc1cccc2c(=O)[nH]c(=O)n(Cc3cccc(C(=O)N4CCN(c5ncccn5)CC4)c3)c12` [Example 226, 8-Methyl-1-(3-(4-(pyrimidin-2-yl)piperazine-1-carbonyl)benzyl)quinazoline-2,4(1H,3H)-dione], the EC50 in assay [1] (Homo sapiens, T47D, 24 h) turned out to be 24 nM. Further, the IC50 in assay [2] (setting [3]) worked out at 84 nM.
Taken in the same sequence, the figures for `COc1cccc2c(=O)[nH]c(=O)n(Cc3cccc(C(=O)N4CCN(c5ncccn5)CC4)c3)c12` [Example 227, 8-Methoxy-1-(3-(4-(pyrimidin-2-yl)piperazine-1-carbonyl)benzyl)quinazoline-2,4(1H,3H)-dione] were 40 nM and 13 nM.
Turning to `O=C(c1cccc(Cn2c(=O)[nH]c3ccccc3c2=O)c1)N1CCN(c2ncccn2)CC1` [Example 228, 3-(3-(4-(Pyrimidin-2-yl)piperazine-1-carbonyl)benzyl)quinazoline-2,4(1H,3H)-dione], in assay [1] (Homo sapiens, T47D, 24 h), the EC50 is above 10000 nM. The IC50 in assay [2] (setting [3]) is above 10000 nM.
As to `O=C(c1cccc(CCn2c(=O)[nH]c(=O)c3ccccc32)c1)N1CCN(c2ncccn2)CC1` [Example 229, 1-(3-(4-(Pyrimidin-2-yl)piperazine-1-carbonyl)phenethyl)quinazoline-2,4(1H,3H)-dione], the EC50 in assay [1] (Homo sapiens, T47D, 24 h) is above 10000 nM. Moreover, the IC50 in assay [2] (setting [3]) is above 10000 nM.
